Test results: article PMC3194046 (European journal of pharmacology, 2009)

Assays:
dopamine (D2) receptor = settings: ref Kumagai et al., 2000; cited from earlier work
sigma2 receptor = molecular target: T1, sigma2 receptor (Rattus norvegicus, UniProt Q5U3Y7); test: Sigma2 receptor binding with [3H]-DTG on rat liver membranes, 100 nM; settings: 100 nM (+)-pentazocine
T1 sequence (Q5U3Y7 1-176): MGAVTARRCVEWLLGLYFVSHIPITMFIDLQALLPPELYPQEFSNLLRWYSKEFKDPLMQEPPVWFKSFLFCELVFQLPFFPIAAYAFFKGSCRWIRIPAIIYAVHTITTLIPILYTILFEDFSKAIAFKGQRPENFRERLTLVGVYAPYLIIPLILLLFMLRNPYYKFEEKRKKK

sigma1 receptor [1] = molecular target: T2, sigma1 receptor (Cavia porcellus, UniProt Q60492); test: Inhibition of [3H]-; type: binding
T2 sequence (Q60492 whole entry): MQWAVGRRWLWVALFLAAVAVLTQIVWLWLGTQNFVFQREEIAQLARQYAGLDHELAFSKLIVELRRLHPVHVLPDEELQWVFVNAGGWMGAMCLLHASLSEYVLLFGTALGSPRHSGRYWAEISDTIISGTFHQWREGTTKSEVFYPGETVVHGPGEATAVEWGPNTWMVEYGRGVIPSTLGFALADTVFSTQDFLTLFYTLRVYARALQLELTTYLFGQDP

[2] = molecular target: T3, purified guinea pig sigma1 receptor (Cavia porcellus, UniProt Q60492); test: Competition binding of [3H]-; settings: for inhibition of [3H]-(+)-pentazocine binding to the sigma1 receptor: Fig. 2A, 2B
T3 sequence (Q60492 whole entry): as above

[3] = molecular target: T4, sigma1 receptor in guinea pig liver membranes (Cavia porcellus, UniProt Q60492); test: Competition binding of [3H]-
T4 sequence (Q60492 whole entry): as above

sigma1 receptor [4] = molecular target: T2, sigma1 receptor; test: Inhibition of [3H]-; type: binding; settings: HEK-293 homogenates S1,SK1; 2 mM ATP, 5 mM MgCl2; concentrations as high as 100 µM
[5] = molecular target: T4, sigma1 receptor in guinea pig liver membranes; test: Saturation equilibrium binding of [3H]-; settings: saturation binding and Scatchard transformation
pure sigma1 receptor = pure sigma1 receptor (Cavia porcellus, UniProt Q60492); settings: for inhibition of [125I]Iodoazidococaine photolabeling: 10 µM compound, 1 nM photoprobe; for relative inhibition of [125I]-Iodoazidococaine photolabeling: compounds at 0.1 µM, 1 µM and 10 µM
pure sigma1 receptor, sequence (Q60492 whole entry): as above

[6] = molecular target: T3, purified guinea pig sigma1 receptor; settings: ref Moebius et al., 1997; Ramachandran et al., 2007; cited from earlier work
[7] = molecular target: T4, sigma1 receptor in guinea pig liver membranes; settings: ref Moebius et al., 1997; Ramachandran et al., 2007; cited from earlier work

Row | Molecule | affinity for the sigma2 receptor (sigma2 receptor) | inhibition of [125I]Iodoazidococaine photolabeling (pure sigma1 receptor) | relative inhibition of [125I]-Iodoazidococaine photolabeling (pure sigma1 receptor) | inhibition of [3H]-(+)-pentazocine binding to the sigma1 receptor [2] | further results
1 | CCCCCCC[C@@H]1CC[C@@H](CCCC)N1 [(2R-trans)-2-Butyl-5-heptylpyrrolidine] |  |  |  |  | affinity for the dopamine (D2) receptor (dopamine (D2) receptor): high affinity
2 | CCCCCCCCCCCCC/C=C/[C@@H](O)[C@@H](N)CO [D-erythro-sphingosine] | much lower binding affinity | inhibition of photolabeling |  |  | Ki (sigma1 receptor [1]): 3600 ± 600 nM; Ki [2]: 140 ± 20 nM; Ki [3]: 13000 ± 3100 nM; inhibition of [3H]-(+)-pentazocine binding (sigma1 receptor [4]): did not show a significant inhibition; mode of inhibition of [3H]-(+)-pentazocine binding [5]: simple competitive interaction
3 | CCCCCCCCCCCCC/C=C/[C@H](O)[C@@H](N)CO [L-threo-sphingosine] |  |  |  |  | fold more potent at the pure sigma1 receptor than the naturally occurring isomer ([2]; L-threo compared to naturally occurring isomer): approximately 10 fold
4 | CCCCCCCCCCCCC/C=C/[C@@H](O)[C@H](CO)N(C)C [N, N dimethyl sphingosine] | much lower binding affinity | inhibition of photolabeling | marginally better than D-erythro sphingosine |  | 
5 | CCCCCCCCCCCCN [dodecylamine] |  |  |  |  | Ki [2]: 183 ± 17 nM
6 | CCCCCCCCCCCCCCC[C@@H](O)[C@@H](N)CO [sphinganine] | much lower binding affinity |  |  |  | 
7 | CCCCCCCCCCCCC/C=C/[C@@H](O)[C@@H](N)COP(=O)(O)O [sphingosine-1 phosphate] | did not bind | did not show significant inhibition | not as effective | failed to do so | 
8 | CCCCCCCCCCCCCN1CC(C)OC(C)C1 (stereo not drawn) [tridemorph] |  |  |  |  | affinity on the pure sigma1 receptor [6]: high affinity; affinity for the sigma1 receptor in guinea pig liver membranes [7]: high affinity
9 | ceramide |  |  | not as effective | failed to inhibit | 
10 | ceramide-1 phosphate |  |  | not as effective | failed to inhibit | 
